Data: patent US20070248997A1, “METHOD OF USING ONE-D[…] MULTI-D[…] MAGNETIC RESONANCE TO IDENTIFY COMPOUNDS THAT INTERACT WITH TARGET BIOMOLECULES” (Smithkline Beecham Corporation, priority 1999, published 2007)

Molecular target: Ni^2+ form of Peptide Deformylase (S. Aureus) (Staphylococcus aureus, UniProt P68826)
Assay: Deformylation of For-Met-Ala-Ser-OH by Ni-PDF monitored by 1H NMR over incubation times
Format: biochemical
Details: for interaction constant α between I1 and I2: 0.4 mM 8-hydroxyquinoline (I1) + 0.15 mM N-Nitro-N′-(N-phenylamino)guanidine (I2); for interaction constant α between I1 and I2 / Ki: 2.5 mM substrate, 1 uM enzyme, assuming a KM of 2.5 mM, FIG. 4; for Ki: from slopes of formate buildup, read-out: KEI (constant of inhibition)
Protocol: FIG. 1 depicts the deformylation of For-Met-Ala-Ser-OH catalyzed by the Ni^2+ form of Peptide Deformylase (S. Aureus) (herein also referred to as “PDF”) over a range of incubation times, as monitored by 1H nuclear magnetic resonance spectroscopy.
FIG. 4 depicts the deformylation of For-Met-Ala-Ser-OH catalyzed by the Ni^2+ form of Peptide Deformylase (S.Aureus) over a range of incubation times, as monitored by 1H nuclear magnetic resonance spectroscopy of the buildup of the formate (For) moiety. Four slopes are illustrated in this figure, the first one (∘) is a “control” experiment using 2.5 mM of substrate (For-Met-Ala-Ser-OH) and 1 uM of enzyme. […] The third slope (∇) contains 0.15 mM of N-Nitro-N′-(N-phenylamino)guanidine (I2) in the presence of 2.5 mM of substrate and 1 uM of enzyme. Finally the fourth slope (⋄) contains both I1 and I2 at 0.4 mM and 0.15 mM, respectively, in the presence of 2.5 mM of substrate and 1 uM of enzyme. Calculating the four slopes and using the steady-state rate equations for this system, it is straightforward to calculate the KEI1, KEI2, and α value.

Chain of Ni^2+ form of Peptide Deformylase (S. Aureus) (P68826 whole entry): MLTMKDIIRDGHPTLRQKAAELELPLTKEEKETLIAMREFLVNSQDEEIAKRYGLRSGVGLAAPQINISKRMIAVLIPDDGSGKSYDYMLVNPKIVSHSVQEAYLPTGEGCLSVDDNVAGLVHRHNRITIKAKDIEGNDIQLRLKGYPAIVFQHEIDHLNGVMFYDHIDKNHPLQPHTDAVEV

SMILES	interaction constant α between I1 and I2	Ki [µM]	deformylation of For-Met-Ala-Ser-OH (rate at which product resonance peak increases) (8-hydroxyquinoline added to substrate + Ni-PDF mixture, FIG. 1)
Oc1cccc2cccnc12 [8-hydroxyquinoline]	0.72	335	slightly inhibited
N=C(NNc1ccccc1)N[N+](=O)[O-] [N-Nitro-N′-(N-phenylamino)guanidine]	0.72	151	
